Where “and” joins values, the source holds several entries; their conditions need not be identical. Equal entries are not always repeated.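 Following 48 hours of exposure in 96-well plates, responses at five concentrations were used to interpolate endpoints linearly. At the GI50, growth is halved. At the TGI there is no net growth.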
How the values were obtained:
Assay in all cases: growth of human tumour cells (NCI), 48 h
[1] = tested on: MDA-MB-231 breast
[2] = tested on: MDA-MB-435
[3] = tested on: NCI/ADR-RES ovarian
[4] = tested on: T-47D breast
[5] = tested on: M19-MEL melanoma
[6] = tested on: DMS 114 small cell lung
[7] = tested on: HOP-18 NSCLC
[8] = tested on: MDA-N

Row | Structure (SMILES) | GI50 [1] | TGI [1] | GI50 [2] | TGI [2] | GI50 [3] | TGI [3] | GI50 [4] | TGI [4] | TGI [5] | TGI [6] | also measured
1 | O=C(c1ccccc1)c1c(NCC(O)CN2CCCC2)n(Cc2ccccc2)c(=O)n(Cc2ccccc2)c1=O (stereo not drawn) | 15.3 µM | 29.6 µM | 17.4 µM | 32.8 µM | 19.5 µM | 55.3 µM | 21.3 µM | 45.7 µM | – | – | –
2 | CN1CCc2cc3c(cc2C1O)OCO3 (stereo not drawn) | 17.6 µM and > 100 µM | 35 µM and > 100 µM | – | 11.9 µM and > 100 µM | 23.5 µM and > 100 µM | 59.5 µM and > 100 µM | – | – | – | – | –
3 | COc1cc(-c2nn3c(/C=C4/C(=O)Nc5ccccc54)c(-c4ccc(C)cc4)nc3s2)cc(OC)c1OC | 3.51 µM | 20.8 µM | – | – | 3.05 µM | > 100 µM | 3.13 µM | > 100 µM | – | – | –
4 | CCCCCCCCCCCOC(=S)NC(C)C | – | – | – | – | – | – | – | – | 58.6 µM | 36.1 µM | TGI [7]: 88.5 µM
5 | CC(=O)N1CCN(C2=Nc3ccccc3CO2)C1=S | > 100 µM | > 100 µM | 81.4 µM | > 100 µM | > 100 µM | > 100 µM | 33 µM | > 100 µM | – | – | –
6 | O=C(c1ccc2ccccc2c1O)N1CCCCC1 | – | > 100 µM | – | > 100 µM | – | > 100 µM | – | > 100 µM | – | – | –
7 | Nc1ncnc2c1ncn2C1OC(COP(=O)(O)CP(=O)(O)O)C(O)C1O (stereo not drawn) | – | – | – | > 100 µM | – | > 100 µM | – | > 100 µM | – | – | TGI [8]: > 100 µM
8 | O=P([O-])(O)OP(=O)([O-])O.[NH-][C@H]1CCCC[C@@H]1[NH-].[OH-].[OH-].[Pt+4] | 25 µM | 57.2 µM | 31.2 µM | > 100 µM | 22.7 µM | 78.1 µM | 25 µM | 61.4 µM | – | – | –
9 | Cc1ccc(C)c(NC(=O)C(=O)CC(=O)C2CCOC2=O)c1 (stereo not drawn) | – | – | – | – | – | – | – | – | > 100 µM | > 100 µM | –
10 | O=C(NCCCCCCCCNC(=O)c1cnc2ccccc2n1)c1cnc2ccccc2n1 | – | – | – | – | – | – | – | – | > 100 µM | > 100 µM | TGI [7]: > 100 µM
11 | COc1ccc(/C(=N/NC(N)=O)C2(O)C(=O)Nc3ccc([N+](=O)[O-])cc32)cc1 (stereo not drawn) | – | – | – | – | – | – | – | – | 45.6 µM | 47.8 µM | –
12 | C=CC(=O)Nc1ccc(Nc2nccc(-c3ccc(N4CCCC4)c(C#N)c3)n2)cc1 | > 25 µM | > 25 µM | 7.09 µM | > 25 µM | > 25 µM | > 25 µM | > 25 µM | > 25 µM | – | – | –
13 | COc1cc2c(/C=N\N=C(N)N)c(Cl)[nH]c2cc1C | 6.4 µM | 20.8 µM | 12.2 µM | 26.2 µM | 23.3 µM | 50.5 µM | 2.96 µM | 9.12 µM | – | – | –
14 | CC(C)[C@](O)(c1ccc2cc(OC(F)F)c(OC(F)F)cc2c1)c1cn[nH]n1 | 20.5 µM and 12.3 µM | 38.9 µM and 28.6 µM | 16 µM and 15.4 µM | 32.6 µM and 33 µM | 20.1 µM and 21.5 µM | 52.8 µM and 53.5 µM | 3.73 µM and 15.5 µM | 53.4 µM and 71.1 µM | – | – | –
15 | COc1cccc(C2CC(c3cc(OC)c(OC)c(OC)c3)=NN2)c1 (stereo not drawn) | 26.2 µM | > 100 µM | 2.79 µM | 9.39 µM | 4.55 µM | 27.4 µM | 20.2 µM | > 100 µM | – | – | –
16 | Cc1ccc(C(=O)O/N=C2/CCCC/C2=C\c2ccccc2)cc1 | – | – | – | – | – | – | – | – | > 100 µM | – | TGI [7]: > 100 µM
17 | CC(C)=CCN=C(N)N | – | > 100 µM | – | > 100 µM | – | > 100 µM | – | > 100 µM | – | – | TGI [8]: > 100 µM

Row | Structure (SMILES) | GI50 [1] | TGI [1] | GI50 [2] | TGI [2] | GI50 [3] | TGI [3] | GI50 [4] | TGI [4] | TGI [5] | TGI [6] | also measured
18 | CCCN(CCC)CCCNCc1cc(I)cc(C)c1O | 14.5 µM | 28.5 µM | 12 µM | 24.8 µM | 15.4 µM | 29.8 µM | 15.9 µM | 42.1 µM | – | – | –
19 | C1=C(c2ccccc2)CN(c2ccccc2)OC1 | – | – | – | – | – | – | – | – | > 100 µM | – | TGI [7]: 69.3 µM
20 | C1OCC2S[C@@H]3COCO[C@@H]3C2O1 (stereo partly drawn) | – | – | – | – | – | – | – | – | > 100 µM | > 100 µM | –
21 | CO[C@H](C(=O)[C@@H](O)[C@@H](C)O)[C@@H]1Cc2cc3cc(O[C@H]4C[C@@H](O[C@H]5C[C@@H](O)[C@H](O)C(C)O5)[C@H](O)C(C)O4)c(C)c(O)c3c(O)c2C(=O)[C@H]1O[C@H]1C[C@@H](O[C@H]2C[C@@H](O[C@H]3C[C@@H](OC)[C@H](O)C(C)O3)[C@@H](O)C(C)O2)C(O)(O)C(C)O1 (stereo partly drawn) | 0.794 µM | 24.5 µM | 0.171 µM | 3.53 µM | > 25 µM | > 25 µM | 0.0543 µM | 24.6 µM | – | – | –
22 | O=C(O)CSCc1cccc2ccccc12 | – | > 100 µM | – | > 100 µM | – | > 100 µM | – | > 100 µM | – | – | TGI [8]: > 100 µM
23 | O=C(O)c1ccccc1Cc1ccco1 | – | – | – | – | – | – | – | – | – | > 100 µM | TGI [7]: > 100 µM
24 | CCC[CH2][Sn]([CH2]CCC)([O]C(=O)c1c(F)cccc1F)[O]C(=O)c1c(F)cccc1F | – | – | – | – | – | – | – | – | 1.43 µM | 0.602 µM | GI50 [5]: 0.364 µM; GI50 [6]: 0.214 µM; GI50 [7]: 1.89 µM; TGI [7]: 3.3 µM
25 | CC1=NN(C(=O)c2ccccc2O)C(=O)/C1=C/c1ccc([N+](=O)[O-])cc1 | – | > 100 µM | – | > 100 µM | 0.449 µM | – | 0.222 µM | > 100 µM | > 100 µM | 7.81 µM | GI50 [8]: 0.0903 µM; TGI [8]: > 100 µM
26 | COc1ccc(S(=O)(=O)NC(C)C(=O)O)cc1 (stereo not drawn) | – | – | – | – | – | – | – | – | > 100 µM | – | TGI [7]: > 100 µM
27 | COc1ccc(/C=C2\CN(C)Cc3c2nc(N)nc3-c2ccc(OC)cc2)cc1 | – | – | – | – | – | – | – | – | > 100 µM | > 100 µM | –
28 | O=C(/C=C/c1ccc(B(O)O)cc1)/C=C/c1ccc(B(O)O)cc1 | 3.08 µM | 10.8 µM | 1.9 µM | 4.24 µM | 17 µM | 62.9 µM | 2.7 µM | 12.3 µM | – | – | –
29 | Cc1nc2ccc(CN(C)c3ccc(C(=O)N[C@@H](CCC(=O)O)C(=O)O)s3)cc2c(=O)[nH]1 | – | > 100 µM | – | > 100 µM | < 0.0149 µM | > 100 µM | – | > 100 µM | – | – | –
30 | C#CCC[C@@H]1O[C@@]1(C)CC/C=C(\C)CC/C=C/C=O | – | – | – | – | – | – | – | – | 48.1 µM | 35.1 µM | –
31 | COc1cc(/C(Cl)=C/C=C/C(=O)c2c(C)[n+]([O-])c3ccc(Cl)cc3[n+]2[O-])cc(OC)c1OC | 6.94 µM | 17.8 µM | 0.673 µM | 1.74 µM | 1.97 µM | > 50 µM | 10.7 µM | > 50 µM | – | – | –
32 | CC1CC2C3CC(F)C4=CC(=O)C=CC4(C)C3(F)C(O)CC2(C)C1(O)C(=O)COC(=O)C(C)(C)C (stereo not drawn) | – | – | – | – | – | – | – | – | > 100 µM | > 100 µM | –
33 | COC(=O)Cc1cc(OC)c(OC)cc1Br | – | – | – | – | – | – | – | – | > 100 µM | > 100 µM | –
34 | Cc1ccccc1NC(=S)Nc1ccccn1 | 89.7 µM | > 100 µM | > 100 µM | > 100 µM | > 100 µM | > 100 µM | 55.7 µM | > 100 µM | – | – | –

— PubChem BioAssay (NCI)
